The assay has as its target T1, tyrosinase.
T1 construct: gene PPO1
Put plainly: absorbance at […] nm, tyrosinase inhibition in 96-well plate. The format is biochemical. The note with it: L-tyrosine substrate ([…] µL of […] in […] µL), phosphate buffer pH […], room temperature, […] min.

What is called IC50 is the concentration needed to halve the response being measured. High values mean weaker potency in that assay, low ones greater potency in that assay.

Consider `COc1cc(C(CO)C(c2ccc(O)c(OC)c2)c2ccc(O)c(OC)c2)ccc1O` (stereo not shown) [quebecol], for which inhibition was half-maximal at 1030 nM (IC50).

These data come from publication PMC9858213, “What Is Authentic Maple Water? A Twelve-Month Shelf-Life Study of the Chemical Composition of Maple Water and Its Biological Activities” (Foods, 2023).
